From patent publication US20200239530A1, “COMPOUNDS AND METHODS OF MODULATING PROTEIN DEGRADATION” (Vividion Therapeutics, Inc., priority 2017, published 2020)

How the values were obtained:
Assay in all cases: Cysteine liganding, probe competition
Assay type in all cases: binding
[1] = biological target: T1, NT5DC2 5-nucleotidase domain-containing protein 2 (Homo sapiens, UniProt Q9H857)
T1 construct: Cells were resuspended in cold PBS on ice and sonicated with a probe sonicator to achieve lysis; endogenous in cells
Outline: (§1)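 Read-out is loss of desthiobiotin iodoacetamide labelling at cysteines, measured on streptavidin-enriched tryptic peptides. Compound preincubation ran 1 hr at 25° C in PBS lysate holding 5 mg/ml proteome before the probe was added.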

[2] = biological target: T2, DTL Denticleless protein homolog (Homo sapiens, UniProt Q9NZJ0)
T2 construct: Cells were resuspended in cold PBS on ice and sonicated with a probe sonicator to achieve lysis; endogenous in cells
Outline: as §1

VPRBP Protein VPRBP = biological target: T3, VPRBP Protein VPRBP (Homo sapiens, UniProt Q9Y4B6)
T3 construct: Cells were resuspended in cold PBS on ice and sonicated with a probe sonicator to achieve lysis; endogenous in cells
Outline: as §1

[3] = biological target: T4, MYCBP2 E3 ubiquitin-protein ligase MYCBP2 (Homo sapiens, UniProt O75592)
T4 construct: Cells were resuspended in cold PBS on ice and sonicated with a probe sonicator to achieve lysis; endogenous in cells
Outline: as §1

[4] = biological target: T5, TNF receptor-associated factor 6 (TRAF6) (Homo sapiens, UniProt Q9Y4K3); conditions: read-out: percent_inhibition
T5 construct: Cells were resuspended in cold PBS on ice and sonicated with a probe sonicator to achieve lysis; endogenous in cells
Outline: as §1

T3 sequence (Q9Y4B6 whole entry): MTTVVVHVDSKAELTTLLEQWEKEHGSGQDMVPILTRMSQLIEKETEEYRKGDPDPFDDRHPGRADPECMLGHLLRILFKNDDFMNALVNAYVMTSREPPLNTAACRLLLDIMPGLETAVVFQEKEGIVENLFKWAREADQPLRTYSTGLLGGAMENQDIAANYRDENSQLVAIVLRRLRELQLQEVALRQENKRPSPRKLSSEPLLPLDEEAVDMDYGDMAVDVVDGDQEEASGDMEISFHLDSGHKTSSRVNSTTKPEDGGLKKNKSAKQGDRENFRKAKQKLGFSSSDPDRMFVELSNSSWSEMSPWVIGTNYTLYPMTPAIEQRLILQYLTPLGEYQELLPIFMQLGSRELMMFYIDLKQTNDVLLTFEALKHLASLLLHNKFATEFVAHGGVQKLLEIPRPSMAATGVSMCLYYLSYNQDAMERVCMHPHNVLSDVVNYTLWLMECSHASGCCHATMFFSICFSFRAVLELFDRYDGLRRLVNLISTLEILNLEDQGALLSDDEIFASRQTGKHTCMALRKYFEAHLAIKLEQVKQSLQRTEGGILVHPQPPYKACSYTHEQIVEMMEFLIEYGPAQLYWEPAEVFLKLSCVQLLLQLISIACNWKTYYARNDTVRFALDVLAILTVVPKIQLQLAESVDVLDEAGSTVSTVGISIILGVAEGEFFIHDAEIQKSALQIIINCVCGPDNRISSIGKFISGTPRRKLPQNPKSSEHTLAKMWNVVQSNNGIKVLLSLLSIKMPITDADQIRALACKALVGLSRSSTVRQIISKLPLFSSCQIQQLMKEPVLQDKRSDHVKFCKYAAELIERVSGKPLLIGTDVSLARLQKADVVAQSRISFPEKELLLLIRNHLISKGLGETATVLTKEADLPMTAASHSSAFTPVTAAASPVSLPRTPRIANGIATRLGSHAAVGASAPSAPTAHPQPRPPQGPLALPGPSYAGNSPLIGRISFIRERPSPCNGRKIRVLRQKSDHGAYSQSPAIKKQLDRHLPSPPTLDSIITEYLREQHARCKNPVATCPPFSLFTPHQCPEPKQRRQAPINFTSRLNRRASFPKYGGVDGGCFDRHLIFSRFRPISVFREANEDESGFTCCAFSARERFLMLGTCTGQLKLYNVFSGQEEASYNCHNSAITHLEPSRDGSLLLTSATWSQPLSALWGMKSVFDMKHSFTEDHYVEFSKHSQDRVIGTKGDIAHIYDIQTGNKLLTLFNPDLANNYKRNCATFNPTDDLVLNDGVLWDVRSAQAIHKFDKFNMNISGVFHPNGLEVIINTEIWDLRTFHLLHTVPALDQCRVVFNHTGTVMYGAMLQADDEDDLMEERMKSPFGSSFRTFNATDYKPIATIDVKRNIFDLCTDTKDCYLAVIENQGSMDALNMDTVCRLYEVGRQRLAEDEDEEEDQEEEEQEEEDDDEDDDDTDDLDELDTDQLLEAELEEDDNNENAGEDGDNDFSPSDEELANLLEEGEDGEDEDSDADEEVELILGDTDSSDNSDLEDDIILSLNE
T2 sequence (Q9NZJ0 whole entry): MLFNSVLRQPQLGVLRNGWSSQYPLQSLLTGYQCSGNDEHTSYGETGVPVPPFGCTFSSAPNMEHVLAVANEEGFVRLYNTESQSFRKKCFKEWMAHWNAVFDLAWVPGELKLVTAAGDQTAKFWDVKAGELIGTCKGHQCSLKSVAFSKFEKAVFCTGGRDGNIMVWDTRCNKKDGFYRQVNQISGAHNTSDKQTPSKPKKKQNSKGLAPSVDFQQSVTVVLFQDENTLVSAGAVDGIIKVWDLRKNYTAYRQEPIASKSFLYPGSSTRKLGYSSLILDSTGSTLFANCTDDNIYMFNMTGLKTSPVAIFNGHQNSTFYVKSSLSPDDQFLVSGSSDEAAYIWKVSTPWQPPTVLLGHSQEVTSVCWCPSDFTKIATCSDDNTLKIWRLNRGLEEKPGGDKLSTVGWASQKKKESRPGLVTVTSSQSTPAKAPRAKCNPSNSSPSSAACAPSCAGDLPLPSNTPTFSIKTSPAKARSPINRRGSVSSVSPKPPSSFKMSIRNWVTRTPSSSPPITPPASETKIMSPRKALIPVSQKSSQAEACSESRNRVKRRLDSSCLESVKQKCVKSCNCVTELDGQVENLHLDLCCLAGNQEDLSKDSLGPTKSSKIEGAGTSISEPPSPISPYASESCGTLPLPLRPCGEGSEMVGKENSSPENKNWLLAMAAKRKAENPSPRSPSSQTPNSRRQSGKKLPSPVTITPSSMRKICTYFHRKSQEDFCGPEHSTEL
T1 sequence (Q9H857 whole entry, the tested form may be a part): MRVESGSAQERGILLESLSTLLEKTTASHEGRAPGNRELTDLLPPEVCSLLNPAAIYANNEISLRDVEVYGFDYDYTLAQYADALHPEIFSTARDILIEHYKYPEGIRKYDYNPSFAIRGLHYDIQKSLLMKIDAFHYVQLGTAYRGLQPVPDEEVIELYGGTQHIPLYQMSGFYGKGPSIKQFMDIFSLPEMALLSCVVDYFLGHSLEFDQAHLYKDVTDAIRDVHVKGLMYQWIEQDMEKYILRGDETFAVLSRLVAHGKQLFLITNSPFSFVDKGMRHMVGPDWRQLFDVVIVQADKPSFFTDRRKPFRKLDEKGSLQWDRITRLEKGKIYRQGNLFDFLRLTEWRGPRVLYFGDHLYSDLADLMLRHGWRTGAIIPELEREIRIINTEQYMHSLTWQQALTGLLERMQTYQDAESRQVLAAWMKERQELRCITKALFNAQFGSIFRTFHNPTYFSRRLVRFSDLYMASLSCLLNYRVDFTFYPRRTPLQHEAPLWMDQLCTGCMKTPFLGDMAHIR
T5 sequence (Q9Y4K3 whole entry): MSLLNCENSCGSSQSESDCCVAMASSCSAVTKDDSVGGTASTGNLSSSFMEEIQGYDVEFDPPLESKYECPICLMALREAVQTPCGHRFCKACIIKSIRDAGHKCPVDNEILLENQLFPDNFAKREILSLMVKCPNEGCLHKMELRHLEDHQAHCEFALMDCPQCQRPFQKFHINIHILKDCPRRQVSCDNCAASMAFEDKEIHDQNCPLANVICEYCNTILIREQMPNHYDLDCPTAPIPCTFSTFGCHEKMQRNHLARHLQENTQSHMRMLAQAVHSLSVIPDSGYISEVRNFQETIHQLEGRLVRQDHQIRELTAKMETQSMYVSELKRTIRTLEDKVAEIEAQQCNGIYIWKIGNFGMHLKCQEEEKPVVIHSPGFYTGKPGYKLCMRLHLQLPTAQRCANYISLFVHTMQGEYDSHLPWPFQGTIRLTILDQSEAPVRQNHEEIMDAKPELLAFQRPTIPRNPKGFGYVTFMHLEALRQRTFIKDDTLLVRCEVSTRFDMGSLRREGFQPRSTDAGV

Compound	Liganded ([1]; NT5DC2 Res# 504, uniprot Q9H857)	Liganded ([1]; NT5DC2 Res# 507, uniprot Q9H857)	Liganded ([2]; DTL Res# 136, uniprot Q9NZJ0)	Liganded ([2]; DTL Res# 141, uniprot Q9NZJ0)	Liganded (VPRBP Protein VPRBP; VPRBP Res# 69, uniprot Q9Y4B6)	Liganded (VPRBP Protein VPRBP; VPRBP Res# 967, uniprot Q9Y4B6)	Liganded ([3]; MYCBP2 Res# 1131, uniprot O75592)	Liganded ([3]; MYCBP2 Res# 3152, uniprot O75592)	inhibition at 500 µM [4] [%]
COc1ccc2c(c1)CCCN2C(=O)CCl [KB02]	YES	YES	YES	YES	YES	YES	YES	YES	
C=CC(=O)N(c1ccccc1)c1ccc(Br)cc1 [KB05]									31
